Experimental data published in ChEMBL document CHEMBL1129930, “Analogues of methotrexate in rheumatoid arthritis. 2. Effects of 5-deazaaminopterin, 5,10-dideazaaminopterin, and analogues on type II collagen-induced arthritis in mice” (J Med Chem, 1997).

How the values were obtained:
Mus musculus [1] = assay: Tested for antiinflammatory activity on mouse type II collagen arthritis as Paw swelling of all animals in each group on day 23 at intraperitoneal dose of 0.38 mg/kg; assay type: functional
Mus musculus [2] = assay: Incidence of disease (mouse type II collagen) was scored as the percentage of animals within each experimental group that exhibited joint or limb inflammation on day 37 at intraperitoneal dose of 0.094 mg/kg (deaths observed at 1.5 mg/kg); assay type: functional
Mus musculus [3] = assay: Tested for antiinflammatory activity on mouse type II collagen arthritis as Paw swelling of all animals in each group on day 30 at intraperitoneal dose of 0.75 mg/kg; assay type: functional
Mus musculus [4] = assay: Incidence of disease (mouse type II collagen) was scored as the percentage of animals within each experimental group that exhibited joint or limb inflammation on day 37 at intraperitoneal dose of 0.19 mg/kg (deaths observed at 1.5 mg/kg); assay type: functional
L1210 = assay: Concentration required to inhibit the growth of L1210 cells.; assay type: functional, cell-based; details: Mus musculus
Mus musculus [5] = assay: Incidence of disease (mouse type II collagen) was scored as the percentage of animals within each experimental group that exhibited joint or limb inflammation on day 37 at intraperitoneal dose of 0.047 mg/kg (deaths observed at 1.5 mg/kg); assay type: functional
Mus musculus [6] = assay: Incidence of disease (mouse type II collagen) was scored as the percentage of animals within each experimental group that exhibited joint or limb inflammation on day 23 at intraperitoneal dose of 0.19 mg/kg (deaths observed at 1.5 mg/kg); assay type: functional
Mus musculus [7] = assay: Tested for antiinflammatory activity on mouse type II collagen arthritis as Paw swelling of all animals in each group on day 37 at intraperitoneal dose of 0.38 mg/kg; assay type: functional
Mus musculus [8] = assay: Incidence of disease (mouse type II collagen) was scored as the percentage of animals within each experimental group that exhibited joint or limb inflammation on day 23 at intraperitoneal dose of 0.094 mg/kg (deaths observed at 1.5 mg/kg); assay type: functional
Mus musculus [9] = assay: Tested for antiinflammatory activity on mouse type II collagen arthritis as Paw swelling of all animals in each group on day 30 at intraperitoneal dose of 0.19 mg/kg; assay type: functional
Mus musculus [10] = assay: Tested for antiinflammatory activity on mouse type II collagen arthritis as Paw swelling of all animals in each group on day 23 at intraperitoneal dose of 0.024 mg/kg; assay type: functional
Mus musculus [11] = assay: Incidence of disease (mouse type II collagen) was scored as the percentage of animals within each experimental group that exhibited joint or limb inflammation on day 23 at intraperitoneal dose of 0.024 mg/kg (deaths observed at 1.5 mg/kg); assay type: functional
Mus musculus [12] = assay: Tested for antiinflammatory activity on mouse type II collagen arthritis as Paw swelling of all animals in each group on day 44 at intraperitoneal dose of 0.75 mg/kg; assay type: functional
Mus musculus [13] = assay: Tested for antiinflammatory activity on mouse type II collagen arthritis as Paw swelling of all animals in each group on day 30 at intraperitoneal dose of 0.38 mg/kg; assay type: functional
Mus musculus [14] = assay: Tested for antiinflammatory activity on mouse type II collagen arthritis as Paw swelling of all animals in each group on day 44 at intraperitoneal dose of 0.047 mg/kg; assay type: functional
Mus musculus [15] = assay: Incidence of disease (mouse type II collagen) was scored as the percentage of animals within each experimental group that exhibited joint or limb inflammation on day 37 at intraperitoneal dose of 0.024 mg/kg (deaths observed at 1.5 mg/kg); assay type: functional

Work on `CCc1c(CN(C)c2ccc(C(=O)NC(CCC(=O)O)C(=O)O)cc2)cnc2nc(N)nc(N)c12` (stereo unspecified) yielded a Paw swelling (Mus musculus [1]) of 2.15 mm, an Animals (Mus musculus [2]) of 25% and a Paw swelling (Mus musculus [3]) of 2.2 mm. For the same compound, the Animals (Mus musculus [4]) was 12%, the IC50 (L1210) was 1 nM and the Animals (Mus musculus [5]) was 50%. For the same compound, the Animals (Mus musculus [6]) was 0%, the Paw swelling (Mus musculus [7]) was 2.17 mm and the Animals (Mus musculus [8]) was 0%. For the same compound, the Paw swelling (Mus musculus [9]) was 2.14 mm, the Paw swelling (Mus musculus [10]) was 2.12 mm and the Animals (Mus musculus [11]) was 0%. It also gave a Paw swelling (Mus musculus [12]) of 2.18 mm, a Paw swelling (Mus musculus [13]) of 2.16 mm and a Paw swelling (Mus musculus [14]) of 2.57 mm. It also gave an Animals (Mus musculus [15]) of 0%.
